Source: patent US11655239B2 (SHANGHAI INSTITUTE OF MATERIAL MEDICA, CHINESE ACADEMY OF …, priority 2019, dated 2023)

Key:
[1] = system: mouse model of BLM-induced lung injury; experiment: Histopathological evaluation of lung sections, H&E staining; type: in vivo; conditions: Effect example 4; mice; S15 30, 60, 90 mg/kg, Nintedanib 30 mg/kg, oral qd 12 days
Method: Experimental objective: This group of experiments aimed to investigate the therapeutic potential of the compound S15 in acute lung injury and inflammation induced by bleomycin (BLM).
Experimental grouping (8 mice per group):
Model group (BLM): the mice received BLM (1.7 U/kg) via intratracheal instillation;
Compound S15 group (S15): this group was divided into three dose groups, namely 30, 60 and 90 mg/kg;
Positive control group (Nintedanib): Nintedanib administration group;
Negative control group (Control): only saline was used.
1) Material acquisition: The fresh tissue was fixed in 4% paraformaldehyde for more than 24 hours. The tissue was removed from the fixative solution and trim the tissue at the target site. The trimmed tissue was marked and placed in the dehydration box for later use.
2) Dehydration: The dehydration box was put in the dehydrator and different concentration gradients of ethanol was used sequentially for dehydration. 75% ethanol (4 hours), 85% ethanol (2 hours), 90% ethanol (2 hours), 95% ethanol (1 hour), absolute ethanol I (30 minutes), absolute ethanol II (30 minutes), alcohol benzene (5-10 minutes), xylene I (5-10 minutes), xylene II (5-10 minutes), wax I (1 hour), wax II (1 hour), wax III (1 hour).
3) Embedment: The wax melted at high temperature was put into the embedding frame; before the wax was cooled and solidified, the tissue was taken out of the dehydration box, put into the embedding frame according to the requirements of the embedding surface, marked and cooled at −20° C. After completely solidified, the wax block was removed from the embedding frame and trimmed.
4) Section: The trimmed wax block was put on a paraffin microtome for sectioning. The section thickness was about 4 μm. The sections were floated on warm water at 40° C. of the flotation workstation and flatten. A glass slide was used to lift the tissue from the warm water, and put into a 60° C. oven for dryness. After the water was dried and the wax melted, the glass slide was taken out and stored at ambient temperature for later use. […]

[2] = system: ERK1/2, Akt and p38; experiment: Phosphorylation level of downstream mediators of TGF-β (Western Blot); type: cell-based, human; conditions: MRC-5, TGF-β1 treatment
Method: 1) Preparation of cell protein samples: the cell culture liquid was discarded, wash was performed once with PBS, and samples were collected by adding 1×SDS-Loading. after the samples were collected, they were placed in a metal bath at 100° C., and the samples were boiled for 10 minutes, and then the samples were stored at 4° C. for waiting for subsequent test.
2) Gel preparation and sample loading: according to the molecular weight of the detected protein, different concentrations of separation gel were selected. after filling the 1× electrophoresis buffer, an equal volume of protein sample 4 μl and protein marker were added on the far left to right in sequence. […]
8) Secondary antibodies: the film with the primary antibodies was rewarmed and incubated for about half an hour, and then the primary antibodies were recovered and the film was washed quickly with TBST solution 3 times, 10 minutes each time. […] The dilution ratio of the secondary antibody dedicated for DDR2 was 1:5000; The dilution ratio for the rest of the secondary antibodies were 1:8000, ready for use. […]
In addition, the phosphorylation level of the main downstream mediators of TGF-β was analyzed by Western Blot. […]

For O=C(Nc1cccc(C(F)(F)F)c1)c1ccc(C2CC2)c(-c2ccc3nc(Nc4cnn(C5CC5)c4)ncc3c2)c1 [Compound S15, 4-cyclopropyl-3-(2-((1-cyclopropyl-1H-pyrazol-4-yl)amino)quinazolin-6-yl)-N-(3-(trifluoromethyl)phenyl)benzamide], the “BLM-induced lung injury, H&E staining” value [1] was “improved significantly” and the “phosphorylation level of downstream ERK1/2, Akt and p38” value [2] was “significantly inhibit the phosphorylation level of downstream ERK1/2, Akt and p38”.
